System: MV-4-11 cells
Assay: Gene expression microarray analysis (Affymetrix PrimeView) and GSEA
Assay type: cell-based, human
Design: RFU PODN (11730768_x_at) / Fold change /veh PODN (11730768_x_at) / RFU LINC00158 (11744669_a_at) / Fold change /veh LINC00158 (11744669_a_at) / RFU DUSP10 (11751237_a_at) / Fold change /veh DUSP10 (11751237_a_at) / RFU ID3 (11757404_x_at) / Fold change /veh ID3 (11757404_x_at) / RFU PLEKHG5 (11737974_s_at) / Fold change /veh PLEKHG5 (11737974_s_at) / RFU LRRC4B (11730491_at) / Fold change /veh LRRC4B (11730491_at) / RFU GIMAP4 (11747438_a_at) / Fold change /veh GIMAP4 (11747438_a_at) / RFU KRT8 (11758183_x_at) / Fold change /veh KRT8 (11758183_x_at) / RFU CNN1 (11734310_a_at) / Fold change /veh CNN1 (11734310_a_at) / RFU VPS37D (11726825_at) / Fold change /veh VPS37D (11726825_at) / RFU C10orf10 (11716522_x_at) / Fold change /veh C10orf10 (11716522_x_at) / RFU KIR2DL2 /// KIR2DL4 /// KIR2DL5A /// KIR2DL5B /// KIR2DS1 /// KIR2DS2 /// KIR2DS3 /// KIR2DS4 /// KIR3DL3 /// KIR3DL3 /// KIR3DS1 (11738374_at) / Fold change /veh KIR2DL2 /// KIR2DL4 /// KIR2DL5A /// KIR2DL5B /// KIR2DS1 /// KIR2DS2 /// KIR2DS3 /// KIR2DS4 /// KIR3DL3 /// KIR3DL3 /// KIR3DS1 (11738374_at) / RFU C1QL1 (11718748_at) / Fold change /veh C1QL1 (11718748_at) / RFU TMPRSS4 (11747572_a_at) / Fold change /veh TMPRSS4 (11747572_a_at) / RFU HAMP (11756126_x_at) / Fold change /veh HAMP (11756126_x_at) / RFU RNFT2 (11725882_a_at) / Fold change /veh RNFT2 (11725882_a_at) / RFU NR4A2 (11747474_a_at) / Fold change /veh NR4A2 (11747474_a_at) / RFU ABCC12 (11746883_a_at) / Fold change /veh ABCC12 (11746883_a_at) / RFU TMEM136 (11760407_x_at) / Fold change /veh TMEM136 (11760407_x_at) / RFU CLDN22 /// WWC2 (11732394_at) / Fold change /veh CLDN22 /// WWC2 (11732394_at) / RFU HLA-DPB1 (11760878_x_at) / Fold change /veh HLA-DPB1 (11760878_x_at) / RFU SPINT1 (11716480_a_at) / Fold change /veh SPINT1 (11716480_a_at) / RFU GAP43 (11754022_s_at) / Fold change /veh GAP43 (11754022_s_at) / RFU A4GNT (11735810_at) / Fold change /veh A4GNT (11735810_at) / RFU PRB3 (11715151_x_at) / Fold change /veh PRB3 (11715151_x_at) / RFU TUBB4B (11761932_at) / Fold change /veh TUBB4B (11761932_at) / RFU CAPN14 (11732068_a_at) / Fold change /veh CAPN14 (11732068_a_at) / RFU TMCC2 (11721928_a_at) / Fold change /veh TMCC2 (11721928_a_at) / RFU IRGQ (11745062_a_at) / Fold change /veh IRGQ (11745062_a_at) / RFU FAM174B (11720279_a_at) / Fold change /veh FAM174B (11720279_a_at) / RFU TMPRSS4 (11748680_a_at) / Fold change /veh TMPRSS4 (11748680_a_at) / RFU FAM212B (11763350_a_at) / Fold change /veh FAM212B (11763350_a_at) / RFU PLEKHG5 (11743358_a_at) / Fold change /veh PLEKHG5 (11743358_a_at) / RFU ZSCAN30 (11745921_a_at) / Fold change /veh ZSCAN30 (11745921_a_at) / RFU CMKLR1 (11741424_a_at) / Fold change /veh CMKLR1 (11741424_a_at) / RFU LOC101060620 /// MAPK8IP1 (11723275_at) / Fold change /veh LOC101060620 /// MAPK8IP1 (11723275_at) / RFU SPTSSB (11747773_x_at) / Fold change /veh SPTSSB (11747773_x_at) / RFU PRSS12 (11739890_at) / Fold change /veh PRSS12 (11739890_at) / RFU BIN1 (11741810_x_at) / Fold change /veh BIN1 (11741810_x_at) / RFU WNT11 (11732464_a_at) / Fold change /veh WNT11 (11732464_a_at) / RFU C10orf10 (11716521_a_at) / Fold change /veh C10orf10 (11716521_a_at) / RFU C5orf56 (11738089_at) / Fold change /veh C5orf56 (11738089_at) / RFU CYB561 (11721691_x_at) / Fold change /veh CYB561 (11721691_x_at) / RFU ANKRD19P (11752326_a_at) / Fold change /veh ANKRD19P (11752326_a_at) / RFU OR2T12 /// OR2T33 /// OR2T8 (11738714_s_at) / Fold change /veh OR2T12 /// OR2T33 /// OR2T8 (11738714_s_at) / RFU VCAN (11748164_a_at) / Fold change /veh VCAN (11748164_a_at) / RFU JSRP1 (11732532_at) / Fold change /veh JSRP1 (11732532_at) / RFU KRTAP10-11 (11738290_x_at) / Fold change /veh KRTAP10-11 (11738290_x_at) / RFU MYO3A (11730013_a_at) / Fold change /veh MYO3A (11730013_a_at) / RFU EBF3 (11725865_a_at) / Fold change /veh EBF3 (11725865_a_at) / RFU CAMK2N1 (11719241_x_at) / Fold change /veh CAMK2N1 (11719241_x_at) / RFU C5orf56 (11738088_a_at) / Fold change /veh C5orf56 (11738088_a_at) / RFU OLFML3 (11715873_a_at) / Fold change /veh OLFML3 (11715873_a_at) / RFU LOC100653217 /// NTM (11731650_a_at) / Fold change /veh LOC100653217 /// NTM (11731650_a_at) / RFU MAPK11 (11762145_a_at) / Fold change /veh MAPK11 (11762145_a_at) / RFU FIZ1 (11724087_x_at) / Fold change /veh FIZ1 (11724087_x_at) / RFU OASL (11726364_x_at) / Fold change /veh OASL (11726364_x_at) / RFU SOX15 (11748057_x_at) / Fold change /veh SOX15 (11748057_x_at) / RFU CD79A (11719716_a_at) / Fold change /veh CD79A (11719716_a_at) / RFU HIST1H1D (11736915_at) / Fold change /veh HIST1H1D (11736915_at) / RFU CASKIN2 (11723855_a_at) / Fold change /veh CASKIN2 (11723855_a_at) / RFU LOC730098 (11760151_x_at) / Fold change /veh LOC730098 (11760151_x_at) / RFU OR4N2 (11742367_at) / Fold change /veh OR4N2 (11742367_at) / RFU PRRT2 (11749266_a_at) / Fold change /veh PRRT2 (11749266_a_at) / RFU SNX32 (11753110_a_at) / Fold change /veh SNX32 (11753110_a_at) / RFU CDHR5 (11726645_a_at) / Fold change /veh CDHR5 (11726645_a_at) / RFU RCAN1 (11760418_a_at) / Fold change /veh RCAN1 (11760418_a_at) / RFU FAM167A (11723789_a_at) / Fold change /veh FAM167A (11723789_a_at) / RFU FAM26E (11764081_at) / Fold change /veh FAM26E (11764081_at) / RFU ISYNA1 (11749810_s_at) / Fold change /veh ISYNA1 (11749810_s_at) / RFU ACY1 (11761880_at) / Fold change /veh ACY1 (11761880_at) / RFU 11764098_at / Fold change /veh 11764098_at / RFU SAMD14 (11745864_x_at) / Fold change /veh SAMD14 (11745864_x_at) / RFU NPB (11741838_a_at) / Fold change /veh NPB (11741838_a_at) / RFU TMPRSS6 (11731388_a_at) / Fold change /veh TMPRSS6 (11731388_a_at) / RFU KRTAP10-2 (11738614_at) / Fold change /veh KRTAP10-2 (11738614_at) / RFU ARHGAP8 /// PRR5-ARHGAP8 (11727945_x_at) / Fold change /veh ARHGAP8 /// PRR5-ARHGAP8 (11727945_x_at) / RFU KRTAP5-7 /// NADSYN1 (11734609_at) / Fold change /veh KRTAP5-7 /// NADSYN1 (11734609_at) / RFU RASL12 (11751679_a_at) / Fold change /veh RASL12 (11751679_a_at) / RFU CDKN2B (11736163_a_at) / Fold change /veh CDKN2B (11736163_a_at) / RFU PRF1 (11729649_at) / Fold change /veh PRF1 (11729649_at) / RFU, ZNF638 /// ZNF638-IT1 / Fold change vs veh, ZNF638 /// ZNF638-IT1 / RFU, PANK3 / Fold change vs veh, PANK3 / RFU, SH3YL1 / Fold change vs veh, SH3YL1 / RFU, ZEB2 / Fold change vs veh, ZEB2 / RFU, NRIP1 / Fold change vs veh, NRIP1 / RFU, PTTG1IP / Fold change vs veh, PTTG1IP / RFU, CAPN2 / Fold change vs veh, CAPN2 / RFU, MED14 / Fold change vs veh, MED14 / RFU, SNORA58 / Fold change vs veh, SNORA58 / RFU, C1orf63 / Fold change vs veh, C1orf63 / RFU, LRRFIP1 / Fold change vs veh, LRRFIP1 / RFU, NDUFAF7 / Fold change vs veh, NDUFAF7 / RFU, SLC12A2 / Fold change vs veh, SLC12A2 / RFU, IBTK / Fold change vs veh, IBTK / RFU, ESF1 / Fold change vs veh, ESF1 / Fold change vs veh, TMEM50B / RFU, TAOK1 / Fold change vs veh, TAOK1 / RFU, ACBD3 / Fold change vs veh, ACBD3 / RFU, TMA16 / Fold change vs veh, TMA16 / RFU, RWDD3 / Fold change vs veh, RWDD3 / RFU, BCAT1 / Fold change vs veh, BCAT1 / RFU, EDEM3 / Fold change vs veh, EDEM3 / RFU, TMEM33 / Fold change vs veh, TMEM33 / RFU, WDR75 / Fold change vs veh, WDR75 / RFU, AHCTF1 / Fold change vs veh, AHCTF1 / RFU, TFRC / Fold change vs veh, TFRC / RFU, ZDHHC17 / Fold change vs veh, ZDHHC17 / RFU, NOM1 / Fold change vs veh, NOM1 / RFU, ARL8B / Fold change vs veh, ARL8B / RFU, ZBTB11 / Fold change vs veh, ZBTB11 / RFU, TAMM41 / Fold change vs veh, TAMM41 / RFU, KIAA1704 /// LOC100996395 / Fold change vs veh, KIAA1704 /// LOC100996395 / RFU, ING1 / Fold change vs veh, ING1 / RFU, TRMT61B / Fold change vs veh, TRMT61B / RFU, FUBP3 / Fold change vs veh, FUBP3 / RFU, TP53 / Fold change vs veh, TP53 / RFU, TNKS2 / Fold change vs veh, TNKS2 / RFU, ZFP14 / Fold change vs veh, ZFP14 / RFU, ACTR2 / Fold change vs veh, ACTR2 / RFU, PPP3R1 / Fold change vs veh, PPP3R1 / RFU, PIK3R1 / Fold change vs veh, PIK3R1 / RFU, HNRNPA1 / Fold change vs veh, HNRNPA1 / RFU, RNF170 / Fold change vs veh, RNF170 / RFU, ZNF28 / Fold change vs veh, ZNF28 / RFU, RNGTT / Fold change vs veh, RNGTT / RFU, OGT / Fold change vs veh, OGT / RFU, BRD1 / Fold change vs veh, BRD1 / RFU, MARS / Fold change vs veh, MARS / RFU, ZNF655 / Fold change vs veh, ZNF655 / RFU, FAHD1 / Fold change vs veh, FAHD1 / RFU, BDP1 / Fold change vs veh, BDP1 / RFU, LRRCC1 / Fold change vs veh, LRRCC1 / RFU, ARID1A / Fold change vs veh, ARID1A / RFU, ZNF146 / Fold change vs veh, ZNF146 / RFU, ZNF330 / Fold change vs veh, ZNF330 / RFU, GPN3 / Fold change vs veh, GPN3 / RFU, C9orf123 / Fold change vs veh, C9orf123 / RFU, N4BP2L2 / Fold change vs veh, N4BP2L2 / RFU, ARFIP1 / Fold change vs veh, ARFIP1 / RFU, FAM179B / Fold change vs veh, FAM179B / RFU, BCL10 / Fold change vs veh, BCL10 / RFU, UHRF1BP1L / Fold change vs veh, UHRF1BP1L / RFU, BET1 / Fold change vs veh, BET1 / RFU, CNOT2 / Fold change vs veh, CNOT2 / RFU, ZNF268 / Fold change vs veh, ZNF268 / Fold change vs veh, ZNF507 / RFU, DGCR2 / Fold change vs veh, DGCR2 / RFU, WDSUB1 / Fold change vs veh, WDSUB1 / Fold change vs veh, HSP90B1 /// MIR3652 / RFU, ADSS / Fold change vs veh, ADSS / RFU, GK / Fold change vs veh, GK / RFU, ZNF148 / Fold change vs veh, ZNF148 / RFU, TAF9 / Fold change vs veh, TAF9 / RFU, SLC1A5 / Fold change vs veh, SLC1A5 / RFU, SLMO2 / Fold change vs veh, SLMO2 / RFU, ABCC4 / Fold change vs veh, ABCC4 / RFU, LOC101060439 /// RAP1B / Fold change vs veh, LOC101060439 /// RAP1B / RFU, RFX7 / Fold change vs veh, RFX7 / RFU, GTPBP10 / Fold change vs veh, GTPBP10 / RFU, CNEP1R1 / Fold change vs veh, CNEP1R1 / RFU, BIVM-ERCC5 /// ERCC5 / Fold change vs veh, BIVM-ERCC5 /// ERCC5 / RFU, ILF3 / Fold change vs veh, ILF3 / RFU 11762660_at / Fold change /veh 11762660_at / RFU VCAN (11757783_s_at) / Fold change /veh VCAN (11757783_s_at) / RFU DDX43 (11728927_at) / Fold change /veh DDX43 (11728927_at) / RFU KRT8 (11758188_x_at) / Fold change /veh KRT8 (11758188_x_at) / RFU NKD1 (11759106_at) / Fold change /veh NKD1 (11759106_at) / RFU SRD5A1 (11742802_a_at) / Fold change /veh SRD5A1 (11742802_a_at) / RFU TPSAB1 /// TPSB2 (11721975_s_at) / Fold change /veh TPSAB1 /// TPSB2 (11721975_s_at) / RFU GSTM3 (11746129_a_at) / Fold change /veh GSTM3 (11746129_a_at) / RFU IL23R (11737362_x_at) / Fold change /veh IL23R (11737362_x_at) / RFU TMEM51 (11727254_a_at) / Fold change /veh TMEM51 (11727254_a_at) / RFU PIWIL2 (11732686_x_at) / Fold change /veh PIWIL2 (11732686_x_at) / RFU ORM1 (11744905_x_at) / Fold change /veh ORM1 (11744905_x_at) / RFU CCDC152 (11743942_at) / Fold change /veh CCDC152 (11743942_at) / RFU ECM1 (11717891_a_at) / Fold change /veh ECM1 (11717891_a_at) / RFU IL23R (11748794_a_at) / Fold change /veh IL23R (11748794_a_at) / RFU TNFAIP8L3 (11732012_x_at) / Fold change /veh TNFAIP8L3 (11732012_x_at) / RFU MBOAT4 (11741988_at) / Fold change /veh MBOAT4 (11741988_at) / RFU 11764193_at / Fold change /veh 11764193_at / RFU TMEM53 (11763286_at) / Fold change /veh TMEM53 (11763286_at) / RFU MAGEB2 (11727129_at) / Fold change /veh MAGEB2 (11727129_at) / RFU TMEM200A (11744735_a_at) / Fold change /veh TMEM200A (11744735_a_at) / RFU CCDC152 (11751479_a_at) / Fold change /veh CCDC152 (11751479_a_at) / RFU FAM211A (11726209_a_at) / Fold change /veh FAM211A (11726209_a_at) / RFU RGS16 (11746705_a_at) / Fold change /veh RGS16 (11746705_a_at) / RFU VCAN (11755009_s_at) / Fold change /veh VCAN (11755009_s_at) / RFU RHOB (11743442_s_at) / Fold change /veh RHOB (11743442_s_at) / RFU RGS16 (11720943_a_at) / Fold change /veh RGS16 (11720943_a_at) / RFU RGS16 (11720944_at) / Fold change /veh RGS16 (11720944_at) / RFU, VPS4B / Fold change vs veh, VPS4B / RFU, CREB1 / Fold change vs veh, CREB1 / RFU, DNAJC13 / Fold change vs veh, DNAJC13 / RFU, GNAQ / Fold change vs veh, GNAQ / RFU, CDK5R1 / Fold change vs veh, CDK5R1 / RFU, ZRANB3 / Fold change vs veh, ZRANB3 / RFU, CUL4A / Fold change vs veh, CUL4A / RFU, CCNY / Fold change vs veh, CCNY / RFU, UFL1 / Fold change vs veh, UFL1 / RFU, COG3 / Fold change vs veh, COG3 / RFU, DIAPH2 / Fold change vs veh, DIAPH2 / RFU, SKA2 / Fold change vs veh, SKA2 / RFU, AFF3 / Fold change vs veh, AFF3 / RFU, LMF1 / Fold change vs veh, LMF1 / RFU, IPO11 / Fold change vs veh, IPO11 / RFU, DFFB / Fold change vs veh, DFFB / RFU, FOXP1 / Fold change vs veh, FOXP1 / RFU, CARD8 / Fold change vs veh, CARD8 / RFU, STRN3 / Fold change vs veh, STRN3 / RFU, ADK / Fold change vs veh, ADK / RFU, RASSF2 / Fold change vs veh, RASSF2 / RFU, WIPF1 / Fold change vs veh, WIPF1 / RFU, LARP1B / Fold change vs veh, LARP1B / RFU, RASA1 / Fold change vs veh, RASA1 / RFU, RB1 / Fold change vs veh, RB1 / RFU, PPFIA1 / Fold change vs veh, PPFIA1 / RFU, MAT2A / Fold change vs veh, MAT2A / RFU, CCT5 / Fold change vs veh, CCT5 / RFU, WDR92 / Fold change vs veh, WDR92 / RFU, CUX1 / Fold change vs veh, CUX1 / RFU, TTC7A / Fold change vs veh, TTC7A / RFU, TMEM135 / Fold change vs veh, TMEM135 / RFU, DEPTOR / Fold change vs veh, DEPTOR / RFU, CPM / Fold change vs veh, CPM / RFU, DNAJB6 / Fold change vs veh, DNAJB6 / RFU, CACNA2D3 / Fold change vs veh, CACNA2D3 / RFU, DTX4 / Fold change vs veh, DTX4 / RFU, TFCP2 / Fold change vs veh, TFCP2 / RFU, GMCL1 /// GMCL1P1 / Fold change vs veh, GMCL1 /// GMCL1P1 / RFU, AEBP2 / Fold change vs veh, AEBP2 / RFU, SNHG1 /// SNORD22 /// SNORD25 /// SNORD26 /// SNORD27 /// SNORD28 /// SNORD29 /// SNORD31 / Fold change vs veh, SNHG1 /// SNORD22 /// SNORD25 /// SNORD26 /// SNORD27 /// SNORD28 /// SNORD29 /// SNORD31 / Fold change (Aza/veh), C12orf56 (ProbeSet 11735607_a_at) / Fold change (ACY-1035/veh), C12orf56 (ProbeSet 11735607_a_at) / Fold change (Aza/veh), FGFR1OP (ProbeSet 11751329_s_at) / Fold change (ACY-1035/veh), FGFR1OP (ProbeSet 11751329_s_at) / Fold change (Aza/veh), VPS36 (ProbeSet 11739960_a_at) / Fold change (ACY-1035/veh), VPS36 (ProbeSet 11739960_a_at) / RFU SYPL1 (11715823_x_at) / Fold change /veh SYPL1 (11715823_x_at) / RFU IGFBP7 (11715501_s_at) / Fold change /veh IGFBP7 (11715501_s_at) / RFU REEP3 (11722064_at) / Fold change /veh REEP3 (11722064_at) / RFU IGLL1 (11728026_x_at) / Fold change /veh IGLL1 (11728026_x_at): dose or concentration left out as unconfirmed
Settings: ProbeSet 11731610_x_at; LIST B

Nc1ncn([C@@H]2O[C@H](CO)[C@@H](O)[C@H]2O)c(=O)n1 [azacitidine]
Fold change vs veh, KIAA1704 /// LOC100996395: 1.05
